According to US10314312B2, “Synergistic antimicrobial composition of zinc pyrithione” (Jubilant Life Sciences Limited, priority 2014, dated 2019):

Tests used:
[1] = test system: Malassezia furfur (ATCC No. 14521); experiment: Anti-dandruff efficacy: zone of inhibition by disc diffusion method; assay type: cell-based; set-up: key: XX denotes No Activity
Description: (§1) The anti-dandruff efficacy was determined by measuring zone of inhibition using disc diffusion method against Malassezia furfur (ATCC No. 14521). […] The culture plates were incubated at 37° C. for 48 hrs and antifungal activity was evaluated by observing an area of no growth around the disc. An area of no growth around the swatch is known as a zone of inhibition.

[2] = Anti-leaching (biocide release rate) of paint formulations, ASTM-D-6903-07
Description: The biocide (ZPTO) release rate in each test sample is calculated by the following formula: Biocide (ZPTO) release rate=(CZPTO*V*D)/(T*A) wherein, CZPTO=concentration of ZPTO in substitute ocean water (μgL^−1); V=substitute ocean water volume (L); D=hours per day; T=rotation period (hr); A=Area of paint (cm^2).

[3] = combination: ZnP 0.25 w/w % + zinc salt 0.25 w/w %
[4] = combination: ZnP 0.25 w/w % + zinc salt 0.50 w/w %
[5] = combination: ZnP 0.25 w/w % + zinc salt 1.50 w/w %
[6] = zinc salt alone 0.25 w/w %, no ZnP
[7] = zinc salt alone 0.50 w/w %, no ZnP
[8] = zinc salt alone 1.00 w/w %, no ZnP
[9] = zinc salt alone 1.50 w/w %, no ZnP
[10] = zinc salt alone 2.00 w/w %, no ZnP

Description for M. furfur: as §1
The SI is calculated based on F. C. […] SI=Qa/QA+Qb/QB Qa=the concentration of compound A in the blend; Qb=the concentration of compound B in the blend; QA=the concentration of compound A as the only biocide; QB=the concentration of compound B as the only biocide.
If SI (the Synergy Index) is greater than one, antagonism between the products is indicated. If the sum is equal to one, additivity is indicated. But when SI is less than one, synergism is shown, i.e. the lower the SI the greater the synergy shown.

Molecule	Zone of Inhibition [1, 3]	Zone of Inhibition [1, 4]	Zone of Inhibition [1, 5]	Zone of Inhibition [1, 6]	Zone of Inhibition [1, 7]	Zone of Inhibition [1, 8]	Zone of Inhibition [1, 9]	Zone of Inhibition [1, 10]	Zone of Inhibition ([1]; combination: ZnP 0.50 w/w % + zinc salt 1.50 w/w %)	Zone of Inhibition ([1]; combination: ZnP 1.00 w/w % + zinc salt 0.25 w/w %)	Zone of Inhibition ([1]; combination: ZnP 1.00 w/w % + zinc salt 0.50 w/w %)	QB = the concentration of compound B as the only biocide (minimum inhibitory concentration) (M. furfur; zinc nicotinate alone)	Zone of Inhibition ([1]; ZnP alone 0.25 w/w %)	Zone of Inhibition ([1]; ZnP alone 0.50 w/w %)	Zone of Inhibition ([1]; ZnP alone 1.00 w/w %)	Zone of Inhibition ([1]; ZnP alone 1.50 w/w %)	Zone of Inhibition ([1]; ZnP alone 2.00 w/w %)	QA = the concentration of compound A as the only biocide (minimum inhibitory concentration) (M. furfur; zinc pyrithione alone)	ZPTO Conc (av.) ([2]; ZPTO concentration in artificial marine water (substitute ocean water), paint formulation)	Rate of Biocide Leaching (CZPTO * V*D)/(T*A) ([2]; paint formulation in substitute ocean water)
O=C([O-])c1ccccn1.O=C([O-])c1ccccn1.[Zn+2] [Zn-Pic]	35 mm	38 mm	38 mm	XX	XX	XX	XX	XX	–	–	–	–	–	–	–	–	–	–	–	–
CC(O)C(=O)[O-].CC(O)C(=O)[O-].[Zn+2] (centres unmarked) [Zn-Lac]	38 mm	–	–	XX	XX	XX	XX	XX	–	–	–	–	–	–	–	–	–	–	–	–
[O]=[Zn] [ZnO, zinc oxide]	30 mm	–	32 mm	XX	XX	XX	XX	XX	–	–	–	–	–	–	–	–	–	–	–	–
Zinc Nicotinate [Zn-Nic]	40 mm	40 mm	38 mm	XX	XX	XX	XX	6 mm	48 mm	32 mm	48 mm	35000 (QB)	–	–	–	–	–	–	–	–
Zinc pyrithione [ZPTO]	–	–	–	–	–	–	–	–	–	–	–	–	30 mm	30 mm	30 mm	30 mm	30 mm	8	2145.6 μgL−1	171.65 μgcm^2d^−1
NCC(=O)[O-].NCC(=O)[O-].[Zn+2] [Zn-Gly]	30 mm	–	–	XX	XX	XX	XX	XX	–	–	–	–	–	–	–	–	–	–	–	–
